# Experimental data from paper PMC9098890 (European Journal of Medicinal Chemistry, 2022).
# Tests used:
# SARS-CoV-2 (WIV04) = assay: Anti-viral activity assay; format: cell-based
# SARS-CoV-2 3CL^Pro = SARS-CoV-2 3CL^Pro (Severe acute respiratory syndrome coronavirus 2, UniProt P0DTD1); assay: Enzymatic inhibitory activity assay; format: biochemical; conditions: IC50 compared with positive control 1
SMILES,reduction of SARS-CoV-2 viral RNA (SARS-CoV-2 (WIV04)),also measured
"CC(C)(C)[C@H](NC(=O)/C=C/c1ccccc1)C(=O)N[C@H](C=O)C[C@@H]1CCCNC1=O [Compound 10h, (S)-2-cinnamamido-3,3-dimethyl-N-((S)-1-oxo-3-((S)-2-oxopiperidin-3-yl)propan-2-yl)butanamide]",more than 2 logs,–
"CC(C)C[C@H](NC(=O)/C=C/c1ccccc1)C(=O)N[C@H](C=O)C[C@@H]1CCNC1=O [Compound 10b, (S)-2-cinnamamido-4-methyl-N-((S)-1-oxo-3-((S)-2-oxopyrrolidin-3-yl)propan-2-yl)pentanamide]",more than 2 logs,–
"CC(C)C[C@H](NC(=O)[C@@H](NC(=O)c1ccc(Cl)cc1)C(C)C)C(=O)N[C@H](C=O)C[C@@H]1CCCNC1=O [Compound 17w, 4-chloro-N-((S)-3-methyl-1-(((S)-4-methyl-1-oxo-1-(((S)-1-oxo-3-((S)-2-oxopiperidin-3-yl)propan-2-yl)amino)pentan-2-yl)amino)-1-oxobutan-2-yl)benzamide]",–,increased inhibitory potency versus positive control 1 (SARS-CoV-2 3CL^Pro): 4 fold
"CC(C)C[C@H](NC(=O)[C@@H](NC(=O)/C=C/c1ccccc1)C(C)C)C(=O)N[C@H](C=O)C[C@@H]1CCCNC1=O [Compound 14c, (S)-2-((S)-2-cinnamamido-3-methylbutanamido)-4-methyl-N-((S)-1-oxo-3-((S)-2-oxopiperidin-3-yl)propan-2-yl)pentanamide]",–,antiviral activity against SARS-CoV-2 (in words) (SARS-CoV-2 (WIV04)): no antiviral activity
"CC(C)C[C@H](NC(=O)[C@H](CC1CCCCC1)NC(=O)/C=C/c1ccccc1)C(=O)N[C@H](C=O)C[C@@H]1CCCNC1=O [Compound 14d, (S)-2-((S)-2-cinnamamido-3-cyclohexylpropanamido)-4-methyl-N-((S)-1-oxo-3-((S)-2-oxopiperidin-3-yl)propan-2-yl)pentanamide]",more than 2 logs,–
"CCCC[C@H](NC(=O)/C=C/c1ccccc1)C(=O)N[C@H](C=O)C[C@@H]1CCNC1=O [Compound 10c, (S)-2-cinnamamido-N-((S)-1-oxo-3-((S)-2-oxopyrrolidin-3-yl)propan-2-yl)hexanamide]",more than 2 logs,–
"CC(C)C[C@H](NC(=O)[C@@H](NC(=O)c1ccc2ccccc2c1)C(C)C)C(=O)N[C@H](C=O)C[C@@H]1CCCNC1=O [Compound 17i, N-((S)-3-methyl-1-(((S)-4-methyl-1-oxo-1-(((S)-1-oxo-3-((S)-2-oxopiperidin-3-yl)propan-2-yl)amino)pentan-2-yl)amino)-1-oxobutan-2-yl)-2-naphthamide]",more than 2 logs,–
"CC(C)C[C@H](NC(=O)/C=C/c1ccccc1)C(=O)N[C@H](C=O)C[C@@H]1CCCNC1=O [Compound 10g, (S)-2-cinnamamido-4-methyl-N-((S)-1-oxo-3-((S)-2-oxopiperidin-3-yl)propan-2-yl)pentanamide]",more than 2 logs,–
